Experiments:
CBP [1] = biological target: T1, CBP (Homo sapiens, UniProt Q92793); experiment: Peptide competition of CBP-mediated acetylation of full-length SUMO-1; assay type: biochemical; conditions: cold acetylated peptide in 10 fold excess relatively to full length SUMO-1; 14C-acetyl CoA
T1 construct: purified SUMO-1 protein and the catalytic domain of several acetyltransferases, specifically of CBP and PCAF; purchased Biomol
Experimental: (§1) FIG. 2. Identification of an acetylated domain of SUMO-1 conserved among SUMO family members. A. Purified SUMO1 was subjected to an in vitro acetylation reaction in the absence (lane 2) or presence (lane 3) of CBP, and of 14C-Acetyl-Coenzyme A. Lane 1 contain CBP in the absence of SUMO-1. Reactions were assembled in 30 μl volume, and developed with autoradiography. 1/20 of the reaction mixtures were run independently and proteins were visualized with Coomassie Brilliant Blue staining (lanes 4-6). The position of SUMO-1 and CBP is indicated by arrows. B. Peptide competition experiments. The following acetylated peptides were used: K25-K27:YIK(Ac)LK(Ac)VIG (lane 2); peptide K37-K39:HFK(Ac)VK(Ac)MTT (lane 3); peptide K45-K46-K48:HLK(Ac)K(Ac)LK(Ac)ES (lane 4). Lane 1 contains the acetylation reaction with a control peptide ([…]) and lane 5 contains the acetylation reaction without peptide(s). Polypeptides were incubated in a 10 fold excess relatively to full length SUMO-1. C. Identification of lysines residues acetylated in vitro and in vivo by mass spectrometry and alignment of acetylated residues in SUMO-1 with SUMO-2 and SUMO-3. Acetylated lysines of SUMO-1 are indicated by arrows and bolded in red, and conserved residues are shown. Based on the results of Mass Spectrometry we name the domain comprised between amino acid K37 to K48 SUMO-1 Acetylated Domain, or SAD. D. Acetylation of SUMO family members. Acetylation reactions were carried out as described in A. SUMO-1 (lanes 2, 5) SUMO-2 (lanes 3, 6), or SUMO-3 (lanes 4, 7) were subjected to an acetylation reaction in absence (lanes 2-4) or presence (lanes 5-7; indicated by +) of CBP. Lane 1 contains an acetylation reaction with CBP without SUMO proteins.
Acetylation reactions were typically assembled in a 30 μl volume, containing HAT buffer (1×25 mM Tris-HCl ph 7.9; 50 mM NaCl, 1 mM DTT), 6 μl of ^14C-Acetyl-Coenzyme A (Amersham) or cold Acetyl-Coenzyme A (lithium salt, from Roche), 1-2 μg CBP, 0.5-1 μg of SUMO proteins. […]

CBP [2] = biological target: T1, CBP; experiment: In vitro acetylation reaction with CBP; assay type: biochemical; conditions: purified protein, 14C-acetyl CoA, autoradiography
Experimental: as §1, with “proteins. […]” for “proteins.”
From the mass spectrometric analysis performed on the in vitro reactions, it was determined that CBP was able to acetylate the same residues that were found acetylated in vivo, specifically K37, K39 and K48. […]

PCAF = biological target: T2, PCAF (Homo sapiens, UniProt Q92831); experiment: In vitro acetylation reaction with PCAF; assay type: biochemical; conditions: purified protein, 14C-acetyl CoA
T2 construct: purified SUMO-1 protein and the catalytic domain of several acetyltransferases, specifically of CBP and PCAF
Experimental: Acetylation reactions were typically assembled in a 30 μl volume, containing HAT buffer (1×25 mM Tris-HCl ph 7.9; 50 mM NaCl, 1 mM DTT), 6 μl of ^14C-Acetyl-Coenzyme A (Amersham) or cold Acetyl-Coenzyme A (lithium salt, from Roche), 1-2 μg CBP, 0.5-1 μg of SUMO proteins.
The discovery of such similarities implied that this SUMO-1 domain might functionally mimic the acetylated state of similar domains of transcription factors. Two approaches were used to determine if the identified SUMO-1 domain was acetylated. First, acetylation assays were performed in vitro using purified SUMO-1 protein and the catalytic domain of several acetyltransferases, specifically of CBP and PCAF, in the presence of 14C-acetyl CoA. […] To preliminarily map the site(s) of acetylation, we tested the ability of cold synthetic polypeptides corresponding to specific SUMO-1 regions, to inhibit CBP-mediated acetylation of the full-length protein in a reaction containing 14C-acetyl CoA.

H1299 cells = experiment: Cell cycle analysis by flow cytometry; assay type: cell-based, human; conditions: H1299 cells infected with adenovirus expressing p53, 72 hours after infection
Experimental: FIG. 5. […] 72 hours after infection, cells were harvested and their cell cycle profile was analyzed (see materials and methods). B-C.
Flow cytometry was performed as described previously by Knights, C. D., et al. J. Cell Biol. 173(4):533-544 (2006).

SUMO-1 acetylation = experiment: Modulation of SUMO-1 acetylation in H1299 cells expressing SUMO-1; assay type: cell-based, human; conditions: 500 nM TSA or 1 μM etoposide, versus untreated cells
Experimental: FIG. 3. SUMO-1 is acetylated when bound to its substrates. A. A polyclonal antibody raised against a SUMO-1 peptide SEIHF{Lys-Ac}[…] acetylated at K37 was raised and purified by peptide affinity purification. The specificity of this antibody was tested first in an in vitro acetylation reaction similar to that described in FIG. 2A. SUMO-1 was incubated in the presence (lane 3) or absence (lane 2) of CBP and cold Acetyl-coenzyme A. Lane 1 contains the acetylation reaction with CBP alone without SUMO-1. Samples were subjected to SDS electrophoresis, blotted on a PDF membrane, and probed with Ac-K37-Ab in immunoblot (upper panel). After chemi-luminescence, the membrane was stained with Comassie Brilliant Blue to reveal SUMO-1 (lower panel). B. Acetylation of SUMO-1 in vivo. Control H1299 cells (lanes 1 and 4) or H1299 expressing naïve SUMO-1 (lanes 2 and 5) or a SUMO-1 harboring lysine to arginine replacements at position K37-K39 and K45-K46-K48 (SUMOK37-K48R, lanes 3 and 6) were induced with tetracycline. […] Following electrophoresis and transfer, membranes were immuno-blotted with the Ac-K37-Ab (left panel, lanes 1-3). Forty micrograms of total cell extracts were probed with the anti-Flag antibody in direct immuno-blot (right panel, lanes 4-6). The position of free SUMO-1 and of SUMO-1 conjugated to RanGap is indicated by arrows. C. Modulation of SUMO-1 acetylation by deacetylases and by DNA damaging agents. H1299 cells expressing SUMO-1 were left untreated (lanes 1 and 5) or they were treated with 500 nM TSA (lanes 2 and 6), with 1 μM etoposide (lanes 3 and 7), or with 100 mM H2O2 (lanes 4 and 8). Cell extracts were prepared in RIPA buffer, immuno-precipitated with the anti-Flag antibody and processed in immuno-blot with the Ac-K37-Ab as described in B (lanes 1-4). Total cell extracts are shown in the right panel. The position of SUMO-1, RanGaP and of SUMO-1 conjugates is indicated. Full arrows indicate non specific reactivity of the Ac-K37-Ab with heavy and light chains of the anti-Flag immuno-precipitation.
Unless otherwise indicated, cell extracts were prepared in RIPA buffer (0.1% SDS; 50 mM Tris.Cl, pH 6.8; 150 mM NaCl; 0.5% Nonidet P-40; 2 mM EDTA) supplemented with protease a protease inhibitor mixture, with TSA (500 μM) and with […] NEM as an inhibitor of de-sumoylation. Treatment with etoposide was performed at […] overnight. When probed with the anti-SUMO or anti-acetyl-K37 antibody (37-1Ab) in direct immuno-blot, membranes where treated with 6 M Guanidine for 30 minutes, followed by incubation in blocking solution. The Ac-K37 (37-1Ab) antibody was used to a 1:500 dilution in direct immuno-blots on in vitro acetylation reactions (i.e., FIG. 3A) and to a 1:250 dilution for the experiments in cells and in murine tumors. […]

T1 sequence (Q92793 1323-1700 limits assumed): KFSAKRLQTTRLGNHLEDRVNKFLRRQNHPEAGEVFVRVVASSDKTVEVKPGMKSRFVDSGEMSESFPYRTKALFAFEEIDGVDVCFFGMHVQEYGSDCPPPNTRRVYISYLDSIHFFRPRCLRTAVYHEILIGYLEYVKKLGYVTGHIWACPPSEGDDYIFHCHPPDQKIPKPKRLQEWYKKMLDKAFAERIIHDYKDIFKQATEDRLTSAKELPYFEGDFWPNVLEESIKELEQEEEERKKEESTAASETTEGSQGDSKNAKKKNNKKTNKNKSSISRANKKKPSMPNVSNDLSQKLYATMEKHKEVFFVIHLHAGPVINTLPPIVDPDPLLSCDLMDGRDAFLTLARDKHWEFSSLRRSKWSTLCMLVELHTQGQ
T2 sequence (Q92831 503-651 limits assumed, species assumed): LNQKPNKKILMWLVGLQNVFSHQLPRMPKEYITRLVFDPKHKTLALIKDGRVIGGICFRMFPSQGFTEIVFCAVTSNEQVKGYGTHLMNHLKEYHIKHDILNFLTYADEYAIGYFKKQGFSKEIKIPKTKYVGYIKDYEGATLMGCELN

Row | Compound | inhibition of CBP-mediated acetylation of full-length SUMO-1 (CBP [1]) | acetylation by CBP (CBP [2]) | other results
1 | HFK(Ac)VK(Ac)MTT [K37-K39] | completely blocked acetylation | – | –
2 | SUMO-1: small ubiquitin-like modifier protein, SEQ ID NO:1; purified from Biomol or Flag-tagged expressed in H1299 cells | – | efficiently acetylated | acetylation by PCAF (PCAF): not by PCAF; apoptotic cells (H1299 cells): 15%
3 | SUMO-2: purified SUMO-2 from Biomol, SEQ ID NO:2 | – | robustly acetylated | –
4 | CC(/C=C/C(=O)NO)=C\[C@@H](C)C(=O)c1ccc(N(C)C)cc1 [TSA] | – | – | acetylation signal on free SUMO-1 (SUMO-1 acetylation): stronger than that seen in untreated cells; levels of acetylation on RanGAP (SUMO-1 acetylation): only modestly influenced
5 | YIK(Ac)LK(Ac)VIG [K25 and K26] | only weakly abrogated | – | –
6 | COc1cc([C@@H]2c3cc4c(cc3[C@@H](O[C@@H]3O[C@@H]5CO[C@@H](C)O[C@H]5[C@H](O)[C@H]3O)[C@H]3COC(=O)[C@H]23)OCO4)cc(OC)c1O [etoposide] | – | – | acetylation signal on free SUMO-1 (SUMO-1 acetylation): stronger than that seen in untreated cells; levels of acetylation on RanGAP (SUMO-1 acetylation): only modestly influenced
7 | SUMO-3: purified SUMO-3 from Biomol, SEQ ID NO:3 | – | robustly acetylated | –
8 | HLK(Ac)K(Ac)LK(Ac)ES [K45-K46-K48] | completely blocked acetylation | – | –

— patent US20130288275A1, “COMPOSITIONS AND METHODS FOR DETECTING ACETYLATED SUMO PROTEINS” (Georgetown University, priority 2010, published 2013)
